Data taken from ChEMBL document CHEMBL1129708, “Design and synthesis of ring-constrained boropeptide thrombin inhibitors” (Bioorg Med Chem Lett, 1996).

Molecular target: Prothrombin (Homo sapiens, UniProt P00734)
Experiment: Compound was evaluated for the inhibitory activity against thrombin.

Row | SMILES | Ki
1 | CC(C)(C)OC(=O)N1C[C@H](C(=O)N2CCC[C@H]2C(=O)N[C@@H](CCCCN)B2O[C@@H]3C[C@@H]4C[C@@H](C4(C)C)[C@]3(C)O2)[C@@H](c2cccc(C(F)(F)F)c2)C1 | 3.1 nM
2 | CC(C)(C)OC(=O)N1C[C@@H](C(=O)N2CCC[C@H]2C(=O)N[C@@H](CCCCN)B2O[C@@H]3C[C@@H]4C[C@@H](C4(C)C)[C@]3(C)O2)[C@H](c2cccc(C(F)(F)F)c2)C1 | 0.32 nM
3 | CC12OB(C(CCCCN)NC(=O)[C@@H]3CCCN3C(=O)[C@H]3CCCC[C@@H]3c3ccccc3)OC1C[C@@H]1C[C@H]2C1(C)C (stereo partly drawn) | 30 nM

Results, then the compound that gave them:

Row | Ki | SMILES
4 | 0.78 nM | NCCCC[C@H](NC(=O)[C@@H]1CCCN1C(=O)CCc1cccc(C(F)(F)F)c1)B(O)O
5 | 0.5 nM | CC1(C)[C@@H]2C[C@H]3OB([C@H](CCCCN)NC(=O)[C@@H]4CCCN4C(=O)[C@@H]4CNC[C@H]4c4cccc(C(F)(F)F)c4)O[C@@]3(C)[C@H]1C2
6 | 0.8 nM | NCCCC[C@H](NC(=O)[C@@H]1CCCN1C(=O)CCc1ccccc1)B(O)O
7 | 5.6 nM | CC1(C)[C@@H]2C[C@H]3OB([C@H](CCCCN)NC(=O)[C@@H]4CCCN4C(=O)[C@H]4CNC[C@@H]4c4cccc(C(F)(F)F)c4)O[C@@]3(C)[C@H]1C2
8 | 0.46 nM | NCCC[C@H](NC(=O)[C@@H]1CCCN1C(=O)[C@@H]1CCCC[C@H]1c1ccccc1)B(O)O
